Substitutions are numbered along the chain they refer to.
How the values were obtained:
[1] = biological target: T1, UNC-104 (MD-NC-CC1, residue 1-446) (Caenorhabditis elegans, UniProt P23678); assay: microtubule-stimulated ATPase assay; assay type: biochemical; conditions: microtubules present
T1 construct: MD-NC-CC1 fragment, residues 1-446, bacterial expression
T1 sequence (P23678 1-446): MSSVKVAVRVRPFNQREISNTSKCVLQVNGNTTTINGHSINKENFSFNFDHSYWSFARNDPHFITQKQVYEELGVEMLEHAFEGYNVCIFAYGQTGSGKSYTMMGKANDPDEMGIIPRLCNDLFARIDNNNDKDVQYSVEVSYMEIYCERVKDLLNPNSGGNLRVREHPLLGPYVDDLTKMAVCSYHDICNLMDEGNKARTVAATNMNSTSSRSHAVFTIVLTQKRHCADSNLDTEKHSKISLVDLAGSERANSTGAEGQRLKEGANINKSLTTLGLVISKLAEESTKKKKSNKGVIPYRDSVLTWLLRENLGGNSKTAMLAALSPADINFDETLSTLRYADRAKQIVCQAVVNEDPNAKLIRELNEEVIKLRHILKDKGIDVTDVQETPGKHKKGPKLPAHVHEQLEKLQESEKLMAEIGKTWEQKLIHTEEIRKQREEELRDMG

[2] = biological target: T2, UNC-104 (MD-NC-CC1, residue 1-446) (Caenorhabditis elegans, UniProt P23678, C184Y); assay: microtubule-stimulated ATPase assay; assay type: biochemical; conditions: microtubules present
T2 construct: MD-NC-CC1 fragment, residues 1-446, bacterial expression
T2 sequence (P23678 1-446 C184Y): T1 sequence (P23678 1-446) with C184Y

[3] = biological target: T3, KIF13B MD-NC-CC1 (Rattus norvegicus, UniProt A0A0G2K8Z9, , form not given); assay: microtubule-stimulated ATPase, malachite green phosphate endpoint assay; assay type: biochemical; conditions: microtubules present
T3 construct: MD-NC-CC1 fragment (motor domain, neck coil, CC1)
T3 sequence (A0A0G2K8Z9 48-490 T239Y limits assumed): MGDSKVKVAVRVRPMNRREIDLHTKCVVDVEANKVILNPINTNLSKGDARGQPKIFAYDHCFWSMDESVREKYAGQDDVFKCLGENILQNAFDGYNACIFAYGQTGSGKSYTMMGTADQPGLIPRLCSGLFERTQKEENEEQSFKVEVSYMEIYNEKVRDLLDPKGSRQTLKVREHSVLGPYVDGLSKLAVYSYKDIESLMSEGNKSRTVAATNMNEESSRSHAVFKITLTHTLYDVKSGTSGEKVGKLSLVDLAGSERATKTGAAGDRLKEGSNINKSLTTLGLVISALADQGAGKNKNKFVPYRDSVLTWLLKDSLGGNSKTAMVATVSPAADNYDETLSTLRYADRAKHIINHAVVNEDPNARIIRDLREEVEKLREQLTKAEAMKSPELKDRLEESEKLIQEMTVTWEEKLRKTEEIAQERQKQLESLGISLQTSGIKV

[4] = biological target: T4, KIF13B MD-NC-CC1 (Rattus norvegicus, UniProt A0A0G2K8Z9); assay: as above; assay type: biochemical; conditions: microtubules present; autoinhibited wild type
T4 construct: MD-NC-CC1 fragment (motor domain, neck coil, CC1)
T4 sequence (A0A0G2K8Z9 48-490 limits assumed): T3 sequence (A0A0G2K8Z9 48-490 T239Y limits assumed) with Y192T

[5] = biological target: KIF13B T192Y-MD-NC-CC1 mutant (rat); assay: crystal structure; crystals of the KIF13B T192Y-MD-NC-CC1 mutant (~25 mg/ml), 0.1 M Bis-Tris propane pH 8.2, 30% PEG 20000, sitting drop, 16°C; one molecule in the asymmetric unit, dimer formed by a crystallographic two-fold symmetry axis

Molecule | microtubule-stimulated ATPase assay [1] | microtubule-stimulated ATPase assay [2] | microtubule-stimulated ATPase, malachite green phosphate endpoint assay [3] | microtubule-stimulated ATPase, malachite green phosphate endpoint assay [4] | stoichiometry N [5]
Nc1ncnc2c1ncn2[C@@H]1O[C@H](COP(=O)(O)OP(=O)(O)OP(=O)(O)O)[C@@H](O)[C@H]1O [ATP] | the MD-NC-CC1 fragment of UNC-104 shows the moderate MT-stimulated ATPase activity | the C184Y mutant undergo a significant enhancement in its ATPase activity | both the T192Y and L397F mutations significantly restored the ATPase activity of the MD-NC-CC1 fragment | Microtubule-stimulated ATPase activity of the KIF13B MD-NC-CC1 fragment | 
KIF13B T192Y-MD-NC-CC1 mutant (domain or fragment) |  |  |  |  | 2
